Source: PMC7450057, “Enhancing intracellular accumulation and target engagement of PROTACs with reversible covalent chemistry” (Nature Communications, 2020)
“And” between values parts separate entries of the source, which are not always exact repeats. Equal entries are not always repeated. Where two headings read alike, the source gives them in different places.

Key:
BTK-NanoLuc fusion = biological target: T1, BTK-NanoLuc fusion (Homo sapiens, UniProt Q06187); experiment: NanoBRET BTK in-cell target engagement assay; assay type: cell-based
T1 construct: host or cells: HEK 293T/17
In short: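 Tracer-displacement IC50 derived from background-corrected BRET ratio (450 nm donor, 610 nm acceptor) in live HEK293/T17 cells transfected with BTK-NanoLuc. Cells were exposed for 2 h at 37 °C to 1.0 µM tracer plus 5-fold serial dilutions of compound from 10 µM.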

MOLM-14 cells = experiment: Quantification of intracellular drug concentration by LC-MS; assay type: in vitro ADME; settings: for Intracellular concentration: Concentration of compound, AVE / intracellular amount, AVE / intracellular amount / Intracellular concentration: Concentration of compound: 200 nM; for Intracellular concentration: Concentration of compound, AVE / intracellular amount, AVE: average of 3 replicates; for intracellular amount: initial amount 0.4000 nmol; for Intracellular concentration: Concentration of compound: sample volume 400 µL
Procedure: MOLM-14 cells were seeded at a density of 0.5 × 10^6 per mL in 2 mL medium. […] The samples were immediately centrifuged at 12,000 × g for 15 min at 4 °C, then removing the supernatant. In all, 400 μL of NP-40 lysis buffer was added to the cell pellet and mixed thoroughly. The mixtures were rocked for 1 h at 4 °C and centrifuged at 12,000 × g for 15 min at 4 °C. Then the supernatant was transferred to new EP tubes. In total, 20 µL supernatant was extracted with 180 µL of acetonitrile (containing internal standard: 250 nM of RNC-Ctrl) and centrifuged at the same conditions described above. Take 75 μL of supernatant for liquid chromatography-mass spectrometry analysis.
The mass spectrometer was operated in positive SIM ion mode (fragmentor 120 V; cycle time 0.6 s/cycle; Agilent Technologies 6130 Quadrupole LC/MS).

BTK = BTK (Homo sapiens, UniProt Q06187); experiment: BTK degradation in MOLM-14 cells (western blot); assay type: cell-based; parameters: endogenous in cells; host or cells: MOLM-14; settings: for BTK%: Figure 2c, DMSO = 100
Jeko-1 = experiment: IC50 in MCL cell lines (Supplementary Table 2), Jeko-1; settings: for Cell Viability (%): Jeko-1 cells, replicate wells
Maver-1 = experiment: IC50 in MCL cell lines (Supplementary Table 2), Maver-1; settings: for Cell Viability (%): Maver-1 cells, replicate wells

Chain of BTK (Q06187 whole entry): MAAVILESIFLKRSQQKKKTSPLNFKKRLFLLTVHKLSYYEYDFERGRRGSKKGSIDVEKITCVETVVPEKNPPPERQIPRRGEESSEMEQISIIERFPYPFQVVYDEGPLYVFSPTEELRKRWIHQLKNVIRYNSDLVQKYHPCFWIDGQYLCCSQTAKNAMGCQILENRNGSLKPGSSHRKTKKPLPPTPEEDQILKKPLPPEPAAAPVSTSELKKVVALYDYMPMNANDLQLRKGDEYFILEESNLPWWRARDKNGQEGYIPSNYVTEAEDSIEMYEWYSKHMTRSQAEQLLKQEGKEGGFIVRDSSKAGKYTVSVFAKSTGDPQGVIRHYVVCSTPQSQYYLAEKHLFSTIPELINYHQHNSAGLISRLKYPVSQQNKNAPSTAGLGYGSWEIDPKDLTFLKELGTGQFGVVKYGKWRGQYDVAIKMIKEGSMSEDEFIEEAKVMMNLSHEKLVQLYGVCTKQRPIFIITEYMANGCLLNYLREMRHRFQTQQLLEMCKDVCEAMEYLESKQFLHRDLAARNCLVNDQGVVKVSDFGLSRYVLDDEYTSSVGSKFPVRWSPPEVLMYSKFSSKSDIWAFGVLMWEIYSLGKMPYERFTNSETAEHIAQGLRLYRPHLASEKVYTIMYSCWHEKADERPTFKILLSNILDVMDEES
T1 sequence (Q06187 whole entry, the tested form may be a part): as the sequence (Q06187 whole entry) above

In the case of CN(CCCNC(=O)CNc1cccc2c1C(=O)N(C1CCC(=O)NC1=O)C2=O)C(C)(C)C=C(C#N)C(=O)N1CCC[C@@H](n2nc(-c3ccc(Oc4ccccc4)cc3)c3c(N)ncnc32)C1 (stereo partly drawn) [RC-1], the “NanoBRET(%)” value (BTK-NanoLuc fusion; Figure 3c, 1.00E-05 M, triplicates) is reported as 5.754% and 14.0151% and 10.6773%, the “NanoBRET(%)” value (BTK-NanoLuc fusion; Figure 3c, 1.60E-08 M, triplicates) is reported as 84.9586% and 87.9015% and 82.5703% and the “NanoBRET(%)” value (BTK-NanoLuc fusion; Figure 3c, 2.00E-06 M, triplicates) is reported as 6.342% and 5.596% and 5.448%. For the same molecule, the “NanoBRET(%)” value (BTK-NanoLuc fusion; Figure 3c, 3.20E-09 M, triplicates) was 98.0219% and 99.3574% and 101.289%, the “NanoBRET(%)” value (BTK-NanoLuc fusion; Figure 3c, 4.00E-07 M, triplicates) was 9.4506% and 5.015% and 9.59% and the “NanoBRET(%)” value (BTK-NanoLuc fusion; Figure 3c, 8.00E-08 M, triplicates) was 24.5688% and 19.6512% and 23.4022%. For the same molecule, the “NanoBRET(%)” value (BTK-NanoLuc fusion; Figure 3d, 1.00E-05 M, triplicates) was 9.378% and 8.307% and 3.455%, the “NanoBRET(%)” value (BTK-NanoLuc fusion; Figure 3d, 1.60E-08 M, triplicates) was 87.0885% and 73.1635% and 80.126% and the “NanoBRET(%)” value (BTK-NanoLuc fusion; Figure 3d, 2.00E-06 M, triplicates) was 4.9185% and 3.718% and 8.9958%. For the same molecule, the “NanoBRET(%)” value (BTK-NanoLuc fusion; Figure 3d, 3.20E-09 M, triplicates) was 95.2579% and 79.7394% and 93.8869%, the “NanoBRET(%)” value (BTK-NanoLuc fusion; Figure 3d, 4.00E-07 M, triplicates) was 11.2221% and 10.3003% and 9.486% and the “NanoBRET(%)” value (BTK-NanoLuc fusion; Figure 3d, 8.00E-08 M, triplicates) was 50.6504% and 43.13% and 35.3416%. For the same molecule, the IC50 (BTK-NanoLuc fusion; HEK-293 cells, BTK tracer 1.0 µM, Table 1 / Fig. 3c, triplicates, read-out: BTK TE IC50,TE) was 0.043 µM, the IC50 (BTK-NanoLuc fusion; HEK-293 cells, BTK tracer 1.0 µM, experiment of Fig. 3f, read-out: BTK target engagement IC50) was 0.033 µM and the “K′P,D (relative intracellular accumulation coefficient)” value (BTK-NanoLuc fusion; Kd (BTK)/IC50,TE (BTK)) was 1.5 × 10^−1. The BTK target engagement (BTK-NanoLuc fusion; at 40 nM) was 50%, the BTK target engagement (BTK-NanoLuc fusion; at 200 nM) was 90% and the IC50 (BTK-NanoLuc fusion; experiment of Fig. 3d, read-out: BTK target engagement IC50) was 0.059 µM. The “Intracellular concentration: Concentration of compound, AVE” value (shortened to “Intracellular concentration … AVE”) (MOLM-14 cells; 5 min) was 0.1304 µM, the “intracellular amount, AVE” value (MOLM-14 cells; 5 min) was 0.0522 nmol and the intracellular amount (MOLM-14 cells; 5 min, single replicates) was 0.0607 nmol and 0.0507 nmol and 0.0451 nmol. The “Intracellular concentration: Concentration of compound” value (MOLM-14 cells; 5 min, single replicates) was 0.1517 µM and 0.1267 µM and 0.1128 µM, the “Intracellular concentration … AVE” value (MOLM-14 cells; 15 min) was 0.1127 µM and the “intracellular amount, AVE” value (MOLM-14 cells; 15 min) was 0.0451 nmol. The intracellular amount (MOLM-14 cells; 15 min, single replicates) was 0.0487 nmol and 0.0414 nmol and 0.0451 nmol, the “Intracellular concentration: Concentration of compound” value (MOLM-14 cells; 15 min, single replicates) was 0.1218 µM and 0.1035 µM and 0.1128 µM and the “Intracellular concentration … AVE” value (MOLM-14 cells; 30 min) was 0.1159 µM. For the same molecule, the “intracellular amount, AVE” value (MOLM-14 cells; 30 min) was 0.0464 nmol, the intracellular amount (MOLM-14 cells; 30 min, single replicates) was 0.0474 nmol and 0.0471 nmol and 0.0447 nmol and the “Intracellular concentration: Concentration of compound” value (MOLM-14 cells; 30 min, single replicates) was 0.1184 µM and 0.1177 µM and 0.1117 µM. For the same molecule, the “Intracellular concentration … AVE” value (MOLM-14 cells; 60 min) was 0.1117 µM, the “intracellular amount, AVE” value (MOLM-14 cells; 60 min) was 0.0447 nmol and the intracellular amount (MOLM-14 cells; 60 min, single replicates) was 0.0471 nmol and 0.0390 nmol and 0.0480 nmol. For the same molecule, the “Intracellular concentration: Concentration of compound” value (MOLM-14 cells; 60 min, single replicates) was 0.1177 µM and 0.0975 µM and 0.1199 µM, the “Intracellular concentration … AVE” value (MOLM-14 cells; 90 min) was 0.1080 µM and the “intracellular amount, AVE” value (MOLM-14 cells; 90 min) was 0.0432 nmol. The intracellular amount (MOLM-14 cells; 90 min, single replicates) was 0.0436 nmol and 0.0454 nmol and 0.0405 nmol, the “Intracellular concentration: Concentration of compound” value (MOLM-14 cells; 90 min, single replicates) was 0.1091 µM and 0.1136 µM and 0.1013 µM and the “Intracellular concentration … AVE” value (MOLM-14 cells; 120 min) was 0.1194 µM. The “intracellular amount, AVE” value (MOLM-14 cells; 120 min) was 0.0478 nmol, the intracellular amount (MOLM-14 cells; 120 min, single replicates) was 0.0460 nmol and 0.0513 nmol and the “Intracellular concentration: Concentration of compound” value (MOLM-14 cells; 120 min, single replicates) was 0.1151 µM and 0.1282 µM. For the same molecule, the “Intracellular concentration … AVE” value (MOLM-14 cells; 240 min) was 0.1060 µM, the “intracellular amount, AVE” value (MOLM-14 cells; 240 min) was 0.0424 nmol and the intracellular amount (MOLM-14 cells; 240 min, single replicates) was 0.0426 nmol and 0.0421 nmol and 0.0424 nmol. The “Intracellular concentration: Concentration of compound” value (MOLM-14 cells; 240 min, single replicates) was 0.1065 µM and 0.1054 µM and 0.1061 µM, the Cellular concentration (MOLM-14 cells; 5 min, Mean) was 0.0522 nmol/million cells and the Cellular concentration (MOLM-14 cells; 5 min, single replicates, MOLM-14, 200 nM) was 0.0607 nmol/million cells and 0.0507 nmol/million cells and 0.0451 nmol/million cells. The Cellular concentration (MOLM-14 cells; 15 min, Mean) was 0.0451 nmol/million cells, the Cellular concentration (MOLM-14 cells; 15 min, single replicates, MOLM-14, 200 nM) was 0.0487 nmol/million cells and 0.0414 nmol/million cells and 0.0451 nmol/million cells and the Cellular concentration (MOLM-14 cells; 30 min, Mean) was 0.0464 nmol/million cells. For the same molecule, the Cellular concentration (MOLM-14 cells; 30 min, single replicates, MOLM-14, 200 nM) was 0.0474 nmol/million cells and 0.0471 nmol/million cells and 0.0447 nmol/million cells, the Cellular concentration (MOLM-14 cells; 60 min, Mean) was 0.0447 nmol/million cells and the Cellular concentration (MOLM-14 cells; 60 min, single replicates, MOLM-14, 200 nM) was 0.0390 nmol/million cells and 0.0480 nmol/million cells and 0.0471 nmol/million cells and 0.039 nmol/million cells and 0.048 nmol/million cells. The Cellular concentration (MOLM-14 cells; 90 min, Mean) was 0.0432 nmol/million cells, the Cellular concentration (MOLM-14 cells; 90 min, single replicates, MOLM-14, 200 nM) was 0.0436 nmol/million cells and 0.0454 nmol/million cells and 0.0405 nmol/million cells and the Cellular concentration (MOLM-14 cells; 120 min, Mean) was 0.0478 nmol/million cells. For the same molecule, the Cellular concentration (MOLM-14 cells; 120 min, single replicates, MOLM-14, 200 nM) was 0.0460 nmol/million cells and 0.046 nmol/million cells and 0.0513 nmol/million cells, the Cellular concentration (MOLM-14 cells; 240 min, Mean) was 0.0424 nmol/million cells and the Cellular concentration (MOLM-14 cells; 240 min, single replicates, MOLM-14, 200 nM) was 0.0426 nmol/million cells and 0.0421 nmol/million cells and 0.0424 nmol/million cells. The “intracellular concentration of RC-1 relative to RNC-1 and IRC-1” value (MOLM-14 cells; LC-MS of cell lysates) was ~ 2 fold, the “Quantification anti-BTK / anti-β-actin (BTK level vs DMSO)” value (BTK; Figure 2b, 8 nM, duplicates) was 63.6968 and 56.9893 and the “Quantification anti-BTK / anti-β-actin (BTK level vs DMSO)” value (BTK; Figure 2b, 40 nM, duplicates) was 41.0784 and 35.9122. The “Quantification anti-BTK / anti-β-actin (BTK level vs DMSO)” value (BTK; Figure 2b, 200 nM, duplicates) was 29.8182 and 40.565, the BTK% (BTK; 1.6 nM, duplicates) was 93.8522% and 87.3729% and the BTK% (BTK; 8 nM, duplicates) was 68.8086% and 49.2324%. The BTK% (BTK; 200 nM, duplicates) was 29.085% and 28.987%, the BTK% (BTK; 1000 nM, duplicates) was 33.1562% and 45.5509% and the “Quantification anti-BTK / anti-β-actin (BTK level vs DMSO)” value (BTK; Figure 2d, DMSO = 100 (mean)) was 23.0985. For the same molecule, the “Degradation at 200 nM (percentage of BTK degradation)” value (BTK; MOLM-14 cells, 200 nM, 24 h incubation) was 81%, the DC50 (BTK; MOLM-14 cells, 24 h, western blot, read-out: DC50 (compound concentration inducing 50% of protein degradation)) was 0.0066 µM and the IC50 (Jeko-1; Jeko-1, triplicates) was 0.2 µM. For the same molecule, the “Cell Viability (%)” value (Jeko-1; 1.25E-06 M) was 8.1% and 9.79% and 4.911%, the “Cell Viability (%)” value (Jeko-1; 1.56E-07 M) was 59.0193% and 84.765% and 42.1211% and the “Cell Viability (%)” value (Jeko-1; 2.50E-06 M) was 5.234% and 3.584% and 4.277%. The “Cell Viability (%)” value (Jeko-1; 3.13E-07 M) was 35.9177% and 48.9386% and 32.3116%, the “Cell Viability (%)” value (Jeko-1; 5.00E-06 M) was 6.285% and 4.711% and 5.303% and the “Cell Viability (%)” value (Jeko-1; 6.25E-07 M) was 26.3007% and 22.6601% and 16.326%. For the same molecule, the “Cell Viability (%)” value (Jeko-1; 7.81E-08 M) was 58.1018% and 72.8615% and 48.2775%, the IC50 (Maver-1; Maver-1, triplicates) was 3.3 µM and the “Cell Viability (%)” value (Maver-1; 1.25E-06 M) was 72.3477% and 75.344% and 75.6032%. The “Cell Viability (%)” value (Maver-1; 1.56E-07 M) was 94.303% and 94.8872% and 90.9031%, the “Cell Viability (%)” value (Maver-1; 2.50E-06 M) was 56.7361% and 58.5739% and 54.2977% and the “Cell Viability (%)” value (Maver-1; 3.13E-07 M) was 94.0011% and 92.8623% and 88.8158%. For the same molecule, the “Cell Viability (%)” value (Maver-1; 5.00E-06 M) was 44.682% and 45.5221% and 44.0945%, the “Cell Viability (%)” value (Maver-1; 6.25E-07 M) was 91.7892% and 94.3523% and 87.1487% and the “Cell Viability (%)” value (Maver-1; 7.81E-08 M) was 97.5389% and 95.4976% and 96.2656%.
